This is an account of results in PubChem BioAssay AID2060497 (Molecular Pharmacology Branch, DTP, NCI, 2025).
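Further: spheroids exposed to compounds for one week before readout; percent viability relative to DMSO vehicle wells taken as 100%.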

The first assay has as its system 317291-083-R-J1-PDC complex spheroids, viability. The assay is described as follows: Anticancer human tumor 317291-083-R-J1-PDC patient-derived soft tissue sarcoma cell line growth inhibition [GQUAD]. The conditions noted are these: second compound 0.0316 µM; first compound 3.16 µM; hits give low values. Summed up: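 Tumor cells were grown as complex spheroids with HUVEC endothelial cells and mesenchymal stem cells as stroma. G-quadruplex stabilizers were combined with targeted agents over half-log dilutions from near the clinical Cmax, or from 10 microM.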
For the compound `CCCS(=O)(=O)Nc1ccc(F)c(C(=O)c2c[nH]c3ncc(-c4ccc(Cl)cc4)cc23)c1F` + Cc1cnc(CNC(=O)c2c(=O)c3ccc(N4CCCN(C)CC4)nc3n3c2sc2ccccc23)cn1, the viability, T/C is 60.6%.
The same measure, in the same setting: then `O=C(c1cc(Cc2n[nH]c(=O)c3ccccc23)ccc1F)N1CCN(C(=O)C2CC2)CC1` + Cc1[nH]c2ccc(F)cc2c1-c1nc2c3cccnc3c3ncccc3c2[nH]1, with 80.6%.

The assay is the same for the next values; noted with them: second compound 0.0316 µM; first compound 10 µM; hits give low values.
Take `COc1ncnc(C2CC2)c1-c1ncc2cnn(Cc3ccc(-c4nc(C(F)(F)F)cn4C(C)C)cc3)c2n1` + Cc1[nH]c2ccc(F)cc2c1-c1nc2c3cccnc3c3ncccc3c2[nH]1: the viability, T/C is 92.3%.
For the compound `CCCS(=O)(=O)Nc1ccc(F)c(C(=O)c2c[nH]c3ncc(-c4ccc(Cl)cc4)cc23)c1F` + Cc1cnc(CNC(=O)c2c(=O)c3ccc(N4CCCN(C)CC4)nc3n3c2sc2ccccc23)cn1, the viability, T/C is 9.94%.
In the case of `O=C(c1cc(Cc2n[nH]c(=O)c3ccccc23)ccc1F)N1CCN(C(=O)C2CC2)CC1` + Cc1[nH]c2ccc(F)cc2c1-c1nc2c3cccnc3c3ncccc3c2[nH]1, the viability, T/C is 69.5%.

Still in this assay, the particulars now being: second compound 0.1 µM; first compound 0.0316 µM; hits give low values.
For the compound `COc1ncnc(C2CC2)c1-c1ncc2cnn(Cc3ccc(-c4nc(C(F)(F)F)cn4C(C)C)cc3)c2n1` + Cc1[nH]c2ccc(F)cc2c1-c1nc2c3cccnc3c3ncccc3c2[nH]1, the viability, T/C is 85.7%.
Same read-out and setting: in the case of `CCCS(=O)(=O)Nc1ccc(F)c(C(=O)c2c[nH]c3ncc(-c4ccc(Cl)cc4)cc23)c1F` + Cc1cnc(CNC(=O)c2c(=O)c3ccc(N4CCCN(C)CC4)nc3n3c2sc2ccccc23)cn1 it was 64.3%.
For the compound `O=C(c1cc(Cc2n[nH]c(=O)c3ccccc23)ccc1F)N1CCN(C(=O)C2CC2)CC1` + Cc1[nH]c2ccc(F)cc2c1-c1nc2c3cccnc3c3ncccc3c2[nH]1, the viability, T/C was 108%.

The assay is the same for the next values; noted with them: second compound 0.1 µM; first compound 0.1 µM; hits give low values.
In the case of `COc1ncnc(C2CC2)c1-c1ncc2cnn(Cc3ccc(-c4nc(C(F)(F)F)cn4C(C)C)cc3)c2n1` + Cc1[nH]c2ccc(F)cc2c1-c1nc2c3cccnc3c3ncccc3c2[nH]1, the viability, T/C was 96.5%.
`CCCS(=O)(=O)Nc1ccc(F)c(C(=O)c2c[nH]c3ncc(-c4ccc(Cl)cc4)cc23)c1F` + Cc1cnc(CNC(=O)c2c(=O)c3ccc(N4CCCN(C)CC4)nc3n3c2sc2ccccc23)cn1: the viability, T/C was 56.2%.
`O=C(c1cc(Cc2n[nH]c(=O)c3ccccc23)ccc1F)N1CCN(C(=O)C2CC2)CC1` + Cc1[nH]c2ccc(F)cc2c1-c1nc2c3cccnc3c3ncccc3c2[nH]1: the viability, T/C was 116%.

The same assay, now with this note: second compound 0.1 µM; first compound 0.316 µM; hits give low values.
In the case of `COc1ncnc(C2CC2)c1-c1ncc2cnn(Cc3ccc(-c4nc(C(F)(F)F)cn4C(C)C)cc3)c2n1` + Cc1[nH]c2ccc(F)cc2c1-c1nc2c3cccnc3c3ncccc3c2[nH]1, the viability, T/C is 68.3%.
On the same count and under the same terms, then `CCCS(=O)(=O)Nc1ccc(F)c(C(=O)c2c[nH]c3ncc(-c4ccc(Cl)cc4)cc23)c1F` + Cc1cnc(CNC(=O)c2c(=O)c3ccc(N4CCCN(C)CC4)nc3n3c2sc2ccccc23)cn1, with 67.1%.
As to `O=C(c1cc(Cc2n[nH]c(=O)c3ccccc23)ccc1F)N1CCN(C(=O)C2CC2)CC1` + Cc1[nH]c2ccc(F)cc2c1-c1nc2c3cccnc3c3ncccc3c2[nH]1, the viability, T/C is 93.4%.

The assay is the same for the next values; noted with them: second compound 0.1 µM; first compound 1 µM; hits give low values.
`COc1ncnc(C2CC2)c1-c1ncc2cnn(Cc3ccc(-c4nc(C(F)(F)F)cn4C(C)C)cc3)c2n1` + Cc1[nH]c2ccc(F)cc2c1-c1nc2c3cccnc3c3ncccc3c2[nH]1: the viability, T/C is 63.7%.
Turning to `CCCS(=O)(=O)Nc1ccc(F)c(C(=O)c2c[nH]c3ncc(-c4ccc(Cl)cc4)cc23)c1F` + Cc1cnc(CNC(=O)c2c(=O)c3ccc(N4CCCN(C)CC4)nc3n3c2sc2ccccc23)cn1, the viability, T/C was 49.9%.
`O=C(c1cc(Cc2n[nH]c(=O)c3ccccc23)ccc1F)N1CCN(C(=O)C2CC2)CC1` + Cc1[nH]c2ccc(F)cc2c1-c1nc2c3cccnc3c3ncccc3c2[nH]1: the viability, T/C is 94.8%.

Staying with this assay, now noted: second compound 0.1 µM; first compound 3.16 µM; hits give low values.
Take `COc1ncnc(C2CC2)c1-c1ncc2cnn(Cc3ccc(-c4nc(C(F)(F)F)cn4C(C)C)cc3)c2n1` + Cc1[nH]c2ccc(F)cc2c1-c1nc2c3cccnc3c3ncccc3c2[nH]1: the viability, T/C is 93.4%.
For the compound `CCCS(=O)(=O)Nc1ccc(F)c(C(=O)c2c[nH]c3ncc(-c4ccc(Cl)cc4)cc23)c1F` + Cc1cnc(CNC(=O)c2c(=O)c3ccc(N4CCCN(C)CC4)nc3n3c2sc2ccccc23)cn1, the viability, T/C was 59.4%.
The same measure, in the same setting: then `O=C(c1cc(Cc2n[nH]c(=O)c3ccccc23)ccc1F)N1CCN(C(=O)C2CC2)CC1` + Cc1[nH]c2ccc(F)cc2c1-c1nc2c3cccnc3c3ncccc3c2[nH]1, with 92.8%.

The same assay, now with this note: second compound 0.1 µM; first compound 10 µM; hits give low values.
`COc1ncnc(C2CC2)c1-c1ncc2cnn(Cc3ccc(-c4nc(C(F)(F)F)cn4C(C)C)cc3)c2n1` + Cc1[nH]c2ccc(F)cc2c1-c1nc2c3cccnc3c3ncccc3c2[nH]1: the viability, T/C is 65%.
`CCCS(=O)(=O)Nc1ccc(F)c(C(=O)c2c[nH]c3ncc(-c4ccc(Cl)cc4)cc23)c1F` + Cc1cnc(CNC(=O)c2c(=O)c3ccc(N4CCCN(C)CC4)nc3n3c2sc2ccccc23)cn1: the viability, T/C was 9.77%.
As for `O=C(c1cc(Cc2n[nH]c(=O)c3ccccc23)ccc1F)N1CCN(C(=O)C2CC2)CC1` + Cc1[nH]c2ccc(F)cc2c1-c1nc2c3cccnc3c3ncccc3c2[nH]1, the viability, T/C is 65.3%.

The same assay, now with this note: second compound 0.316 µM; first compound 0.0316 µM; hits give low values.
Regarding `COc1ncnc(C2CC2)c1-c1ncc2cnn(Cc3ccc(-c4nc(C(F)(F)F)cn4C(C)C)cc3)c2n1` + Cc1[nH]c2ccc(F)cc2c1-c1nc2c3cccnc3c3ncccc3c2[nH]1, the viability, T/C was 63.3%.
As to `CCCS(=O)(=O)Nc1ccc(F)c(C(=O)c2c[nH]c3ncc(-c4ccc(Cl)cc4)cc23)c1F` + Cc1cnc(CNC(=O)c2c(=O)c3ccc(N4CCCN(C)CC4)nc3n3c2sc2ccccc23)cn1, the viability, T/C was 43%.
On the same count and under the same terms, in the case of `O=C(c1cc(Cc2n[nH]c(=O)c3ccccc23)ccc1F)N1CCN(C(=O)C2CC2)CC1` + Cc1[nH]c2ccc(F)cc2c1-c1nc2c3cccnc3c3ncccc3c2[nH]1 it was 101%.

The assay is the same for the next values; noted with them: second compound 0.316 µM; first compound 0.1 µM; hits give low values.
`COc1ncnc(C2CC2)c1-c1ncc2cnn(Cc3ccc(-c4nc(C(F)(F)F)cn4C(C)C)cc3)c2n1` + Cc1[nH]c2ccc(F)cc2c1-c1nc2c3cccnc3c3ncccc3c2[nH]1: the viability, T/C is 52.8%.
In the case of `CCCS(=O)(=O)Nc1ccc(F)c(C(=O)c2c[nH]c3ncc(-c4ccc(Cl)cc4)cc23)c1F` + Cc1cnc(CNC(=O)c2c(=O)c3ccc(N4CCCN(C)CC4)nc3n3c2sc2ccccc23)cn1, the viability, T/C is 68.4%.
For the compound `O=C(c1cc(Cc2n[nH]c(=O)c3ccccc23)ccc1F)N1CCN(C(=O)C2CC2)CC1` + Cc1[nH]c2ccc(F)cc2c1-c1nc2c3cccnc3c3ncccc3c2[nH]1, the viability, T/C is 111%.

The assay is the same for the next values; noted with them: second compound 0.316 µM; first compound 0.316 µM; hits give low values.
In the case of `COc1ncnc(C2CC2)c1-c1ncc2cnn(Cc3ccc(-c4nc(C(F)(F)F)cn4C(C)C)cc3)c2n1` + Cc1[nH]c2ccc(F)cc2c1-c1nc2c3cccnc3c3ncccc3c2[nH]1, the viability, T/C was 50.4%.
The same measure, in the same setting: in the case of `CCCS(=O)(=O)Nc1ccc(F)c(C(=O)c2c[nH]c3ncc(-c4ccc(Cl)cc4)cc23)c1F` + Cc1cnc(CNC(=O)c2c(=O)c3ccc(N4CCCN(C)CC4)nc3n3c2sc2ccccc23)cn1 it was 43.6%; in that of `O=C(c1cc(Cc2n[nH]c(=O)c3ccccc23)ccc1F)N1CCN(C(=O)C2CC2)CC1` + Cc1[nH]c2ccc(F)cc2c1-c1nc2c3cccnc3c3ncccc3c2[nH]1, 101%.

Broadly, the viability, T/C is the ratio of treated to control.
